From patent publication US8614206B2 (Genentech, Inc., priority 2011, dated 2013)
Like-named read-outs stand apart in the source and are kept apart here.

Key:
[1] = molecular target: PIM1 (Homo sapiens (Human), UniProt P11309); test: Pim kinase inhibition, PIM1 LC3K (Example 901); format: biochemical
Source text: Determination of the Pim kinase activity of a Formula I compound is possible by a number of direct and indirect detection methods.

[2] = test system: BaF3 parental cells; test: In vitro cell proliferation, BaF3 parental line + IL3 (CellTiter-Glo); format: cell-based, murine; settings: Mus musculus, BaF3, BaF3 parental cells with IL-3, incubated overnight
[3] = test system: MM1.S (multiple myeloma) cells; test: In vitro cell proliferation, MM1.S multiple myeloma cells (CellTiter-Glo, ATP); format: cell-based; settings: Homo sapiens, MM1.S, 72 h, read-out: Prolif MM1S ATP (EC50)
Method in brief: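 BaF3 parental cells (medium with 2 ng/mL mIL-3) seeded at 2 k/well and MM1.S at 10 k/well, then exposed to test compound at 37° C, 5% CO2: BaF3 overnight, MM1.S for 72 hours. Viability read by CellTiter-Glo; IC50/EC50 values calculated.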

[4] = test system: BaF3 PIM1 cells; test: cells; settings: Mus musculus
[5] = read-out: Prolif BaF3 + IL3 (IC50)
[6] = BaF3, read-out: Prolif BaF3_PIM1 (IC50), BaF3 PIM1 cells, incubated overnight
[7] = read-out: Prolif BaF3 IL3 (IC50)
[8] = BaF3, read-out: Prolif BaF3 PIM1 (IC50), BaF3 PIM1 cells, incubated overnight

PIM1, sequence (P11309 whole entry): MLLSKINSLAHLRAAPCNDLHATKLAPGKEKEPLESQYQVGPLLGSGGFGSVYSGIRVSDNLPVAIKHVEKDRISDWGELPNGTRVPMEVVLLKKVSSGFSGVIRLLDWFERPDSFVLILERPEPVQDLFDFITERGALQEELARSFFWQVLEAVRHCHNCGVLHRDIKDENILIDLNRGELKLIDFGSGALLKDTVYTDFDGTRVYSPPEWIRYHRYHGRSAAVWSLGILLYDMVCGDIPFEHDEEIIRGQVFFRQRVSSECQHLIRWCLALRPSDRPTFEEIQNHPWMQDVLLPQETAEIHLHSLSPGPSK

Row | Compound | Ki [1] [nM] | IC50 [2, 5] [nM] | EC50 [3] [nM] | IC50 [4, 6] [nM] | IC50 [2, 7] [nM] | IC50 [4, 8] [nM]
1 | Cn1ncc(NC(=O)c2nc(-c3ccncc3F)sc2N)c1N1CC[C@H](N)CC(F)(F)C1 (single isomer, unassigned) [Example 446] | 0.01 | 23500 | 9200 | 4.51 | – | –
2 | COC1(C)CC(N)CCN(c2c(NC(=O)c3nc(-c4ccncc4F)sc3N)cnn2C)C1 (stereo not shown) [Example 476, 5-amino-N-[5-(5-amino-3-methoxy-3-methyl-azepan-1-yl)-1-methyl-pyrazol-4-yl]-2-(3-fluoro-4-pyridyl)thiazole-4-carboxamide] | 0.013 | 25000 | 872 | 24.5 | – | –
3 | Cn1ncc(NC(=O)c2nc(-c3ccncc3F)sc2N)c1N1CC[C@H](N)[C@@H](F)CC1 [Example 422, 5-amino-N-(5-((4S,5S)-4-amino-5-fluoroazepan-1-yl)-1-methyl-1H-pyrazol-4-yl)-2-(3-fluoropyridin-4-yl)thiazole-4-carboxamide] | 0.38 | > 25000 | 3800 | 340 | – | –
4 | CN[C@@H]1CCCN(c2c(NC(=O)c3nc(-c4c(F)cccc4F)sc3N)cnn2CC(F)F)CC1 [Example 107, (R)-5-Amino-N-(1-(2,2-difluoroethyl)-5-(4-(methylamino)azepan-1-yl)-1H-pyrazol-4-yl)-2-(2,6-difluorophenyl)thiazole-4-carboxamide] | 0.079 | – | 388 | – | 5100 | 157
5 | Cn1ncc(NC(=O)c2nc(-c3ccccc3F)sc2N)c1N1CCNC[C@]2(CCO2)C1 (single isomer, unassigned) [Example 480] | 0.045 | 7100 | 6200 | 737 | – | –
6 | Nc1sc(-c2c(F)cccc2F)nc1C(=O)Nc1cnn(C2CC2)c1N1CC[C@@H](N)CC(F)(F)C1 [Example 345, 5-amino-N-[5-[(5R)-5-amino-3,3-difluoro-azepan-1-yl]-1-cyclopropyl-pyrazol-4-yl]-2-(2,6-difluorophenyl)thiazole-4-carboxamide] | 0.007 | 8400 | 136 | 81.3 | – | –
7 | Cn1ncc(NC(=O)c2nc(-c3ccncc3F)sc2N)c1N1CC[C@@H](N)CC(F)(F)C1 [Example 447, 5-amino-N-[5-[(5R)-5-amino-3,3-difluoro-azepan-1-yl]-1-methyl-pyrazol-4-yl]-2-(3-fluoro-4-pyridyl)thiazole-4-carboxamide] | 0.014 | 12900 | 571 | 6.97 | – | –
8 | Nc1sc(-c2c(F)cccc2F)nc1C(=O)Nc1cnn(C2CC2)c1N1CCC(N)C(F)CC1 (single isomer, unassigned) [Example 331, 5-amino-N-[5-(4-amino-5-fluoro-azepan-1-yl)-1-cyclopropyl-pyrazol-4-yl]-2-(2,6-difluorophenyl)thiazole-4-carboxamide] | 0.0647 | 13400 | 167 | 152 | – | –
9 | CN[C@H]1CCCN(c2c(NC(=O)c3nc(-c4cc(C)ccc4F)sc3N)cnn2CC(F)F)CC1 [Example 119, (S)-5-Amino-N-(1-(2,2-difluoroethyl)-5-(4-(methylamino)azepan-1-yl)-1H-pyrazol-4-yl)-2-(2-fluoro-5-methylphenyl)thiazole-4-carboxamide] | 0.044 | – | 3000 | – | 5600 | 212
10 | Cc1nn(C)cc1-c1nc(C(=O)Nc2cnn(C)c2N2CC[C@@H](N)CC(F)(F)C2)c(N)s1 [Example 462, 5-amino-N-[5-[(5R)-5-amino-3,3-difluoro-azepan-1-yl]-1-methyl-pyrazol-4-yl]-2-(1,3-dimethylpyrazol-4-yl)thiazole-4-carboxamide] | 0.03 | 8000 | 1200 | 32.6 | – | –
11 | COc1cc(F)c(-c2nc(C(=O)Nc3cnn(C)c3N3CCC(N)CC(F)(F)C3)c(N)s2)c(F)c1 (stereo not shown) [Example 459, 5-amino-N-[5-(5-amino-3,3-difluoro-azepan-1-yl)-1-methyl-pyrazol-4-yl]-2-(2,6-difluoro-4-methoxy-phenyl)thiazole-4-carboxamide] | 0.006 | 7500 | 492 | 6.84 | – | –
12 | COC1CCN(c2c(NC(=O)c3nc(-c4cc(F)ccc4F)sc3N)cnn2C)CCC1N (stereo not shown) [Example 326, 5-amino-N-[5-(4-amino-5-methoxy-azepan-1-yl)-1-methyl-pyrazol-4-yl]-2-(2,5-difluorophenyl)thiazole-4-carboxamide] | 0.384 | 17400 | 185 | 73.5 | – | –
13 | CN[C@@H]1CCCN(c2c(NC(=O)c3nc(-c4cc(F)ccc4F)sc3N)cnn2CC(F)F)CC1 [Example 108, (R)-5-Amino-N-(1-(2,2-difluoroethyl)-5-(4-(methylamino)azepan-1-yl)-1H-pyrazol-4-yl)-2-(2,5-difluorophenyl)thiazole-4-carboxamide] | 0.43 | – | 1400 | – | 4900 | 326
14 | Cn1ncc(NC(=O)c2nc(-c3c(F)ccc(C4CC4)c3F)sc2N)c1N1CCC[C@@H](N)CC1 [Example 115, (R)-5-amino-N-(5-(4-aminoazepan-1-yl)-1-methyl-1H-pyrazol-4-yl)-2-(3-cyclopropyl-2,6-difluorophenyl)thiazole-4-carboxamide] | 0.015 | – | 420 | – | 5800 | 86.3
15 | Cn1ncc(NC(=O)c2nc(-c3cc(F)ccc3F)sc2N)c1N1CCNCC(F)(F)C1 [Example 106, 5-Amino-N-(5-(6,6-difluoro-1,4-diazepan-1-yl)-1-methyl-1H-pyrazol-4-yl)-2-(2,5-difluorophenyl)thiazole-4-carboxamide] | 0.03 | – | 1900 | – | 15600 | 566
16 | COC1(C)CC(N)CCN(c2c(NC(=O)c3nc(-c4ccncc4F)sc3N)cnn2C)C1 (racemic) [Example 441, 5-amino-N-[5-(5-amino-3-methoxy-3-methyl-azepan-1-yl)-1-methyl-pyrazol-4-yl]-2-(3-fluoro-4-pyridyl)thiazole-4-carboxamide] | 0.027 | > 25000 | 39.3 | 13.1 | – | –
17 | COC1(C)CC(N)CCN(c2c(NC(=O)c3nc(-c4c(F)cncc4F)sc3N)cnn2C)C1 (stereo not shown) [Example 473, 5-amino-N-[5-(5-amino-3-methoxy-3-methyl-azepan-1-yl)-1-methyl-pyrazol-4-yl]-2-(3,5-difluoro-4-pyridyl)thiazole-4-carboxamide] | 0.009 | 25000 | 248 | 41.1 | – | –
18 | Cc1cc(-c2nc(C(=O)Nc3cnn(C)c3N3CC[C@@H](N)CC(F)(F)C3)c(N)s2)ccn1 [Example 464, 5-amino-N-[5-[(5R)-5-amino-3,3-difluoro-azepan-1-yl]-1-methyl-pyrazol-4-yl]-2-(2-methyl-4-pyridyl)thiazole-4-carboxamide] | 0.06 | 15900 | 467 | 11.9 | – | –
19 | Nc1sc(-c2cc(F)ccc2F)nc1C(=O)Nc1cnn(CC(F)F)c1N1CCC[C@@H](N)CC1 [Example 161, (R)-5-amino-N-(5-(4-aminoazepan-1-yl)-1-(2,2-difluoroethyl)-1H-pyrazol-4-yl)-2-(2,5-difluorophenyl)thiazole-4-carboxamide] | 0.12 | – | 160 | – | 6000 | 404
